Earlier results in patent US20190054079A1, “ENHANCEMENT OF IMPAIRED MOTOR AND MENTAL FUNCTIONS, USING DEXTROMETHORPHAN AND OXIDASE ENZYME INHIBITOR” (Avanir Pharmaceuticals, Inc., priority 2004, published 2019).

How the values were obtained:
[1] = tested on: patients suffering from neurological disorders (such as ALS); conditions: DM alone, late 1980's and early 1990's
P450-2D6 enzyme = P450-2D6 enzyme (Homo sapiens, UniProt P10635); conditions: among known drugs in Inaba et al 1985 and 1986
Sequence of P450-2D6 enzyme (P10635 whole entry): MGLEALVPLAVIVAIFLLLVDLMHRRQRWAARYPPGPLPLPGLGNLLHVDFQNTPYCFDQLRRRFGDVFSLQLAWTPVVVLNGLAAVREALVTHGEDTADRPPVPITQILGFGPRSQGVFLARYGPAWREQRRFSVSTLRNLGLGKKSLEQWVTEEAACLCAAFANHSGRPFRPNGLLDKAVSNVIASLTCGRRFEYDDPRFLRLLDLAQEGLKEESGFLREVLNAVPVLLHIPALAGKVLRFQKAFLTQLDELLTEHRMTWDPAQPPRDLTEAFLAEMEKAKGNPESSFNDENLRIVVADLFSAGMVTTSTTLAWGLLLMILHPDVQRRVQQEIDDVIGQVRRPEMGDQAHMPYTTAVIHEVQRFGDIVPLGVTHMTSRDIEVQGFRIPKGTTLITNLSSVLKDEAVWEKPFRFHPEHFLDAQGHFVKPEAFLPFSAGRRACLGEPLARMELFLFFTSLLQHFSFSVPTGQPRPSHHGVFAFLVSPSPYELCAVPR

Row | SMILES | activity at sigma receptors (sigma receptors) | benefit in slowing progression of neurological diseases [1] | activity at NMDA receptors (NMDA receptors) | potency of P450-2D6 inhibition (P450-2D6 enzyme)
1 | COc1ccc2c(c1)[C@@]13CCCC[C@H]1[C@@H](C2)N(C)CC3 [Dextromethorphan, (+)-3-methoxy-N-methylmorphinan] | stimulates activity | did not show enough benefits | mildly suppresses activity | –
2 | C=C[C@H]1C[N@@]2CC[C@H]1C[C@@H]2[C@@H](O)c1ccnc2ccc(OC)cc12 [quinidine] | – | – | – | most potent P450-2D6 inhibitor
